In patent US12076417B2, “Plasma-derived nanoparticles” (NANOMEDX, INC., priority 2016, dated 2024):

Columns and labels:
mice = experiment: IVIS fluorescence imaging of ICG after tail vein injection; settings: mouse, in vivo
Method: In another animal experiment, mice were divided randomly into 3 groups: • 1) nanoP^3 only; • 2) nanoP^3 and ICG; or • 3) ICG only.
Following closure of the incision with silk sutures, each mouse was administered with 100 μL of the corresponding sample groups via tail vein injection: nanoP^3 control (9×10^9 nanoP^3), nanoP^3-ICG (9×10^9 nanoP^3 with 2.5 μg of ICG/10^9 nanoP^3) or ICG control (22.5 μg). Non-invasive imaging using IVIS was carried out for detection of fluorescence at Ex/Em=780 nm/820 nm.

[1] = Binding kinetics of ICG to nanoP^3; format: physicochemical
Method: The binding kinetics associated with the simple nanoP^3 conjugation process can be assessed by measuring the amount of bound cargo at different incubation time points and temperatures. NanoP^3 material was conjugated with the precise amount of indocyanine green (ICG) which was calculated in Example 5 to saturate the nanoparticle surface at a monolayer, i.e. 1.9×10^6 ICG molecules on a single nanoP^3 particle (99 nm radius). […] For this experiment, the plasma parameters were set at Q=3, 10 and 3 sccm for acetylene, nitrogen and argon, 150 mTorr and 50 W. The incubation of nanoP^3 (10^9 nanoP^3/mL) with ICG was performed at room temperature, in RT-PCR grade water (pH=7) for 1 hour.

[2] = system: Horseradish Peroxidase (HRP); experiment: Activity of conjugated HRP detected with ABTS at 405 nm; format: biochemical; settings: 0.5 μg/mL HRP, 4 hours incubation, after washing off free HRP
Method: NanoP^3 was collected from the nanoparticle collector under sterile conditions in a tissue culture hood with RT-PCR Grade water. The concentration of nanoparticles was measured by NanoSight LM10. Nanoparticles were then conjugated to desired antibodies (Goat anti-Rat IgG-Cy5; abcam ab6565; and Goat anti-Rabbit IgG; abcam ab150089 at 1:100 dilution), drugs (Doxorubicin: Sigma-Aldrich, D1515 at 100 μg/ml and Paclitaxel-Oregon Green 488, Invitrogen P22310 at 5 μg/mL) or proteins (Peroxidase from Horseradish; Sigma-Aldrich HRP; P6782 at 0.5 μg/mL) for up to 16 hours at 4° C., protected from light. Conjugation of HRP to 150 nm gold nanoparticles was performed (Cytodiagnostics; G-150) in an identical fashion. The samples were gently agitated using Bio RS-24 mini-rotator. […] The fluorescent intensity was measured using a plate reader, the Ex/Em were set in accordance to the fluorescent dye tag on each antibody or drug. […] For detection of HRP, conjugated nanoparticles and respective controls were incubated with ABTS (Sigma-Aldrich; A1888) and hydrogen peroxide (Merck; 386790) until colour was visible and measured at 405 nm. […]
Nanoparticles of nanoP^3 and gold (GNPs) were conjugated with horseradish peroxidase (HRP). These were detected by incubation with 2,2′-azino-bis(3-ethylbenzothiazoline-6-sulphonic acid) (ABTS). […]

Molecule	fluorescence by IVIS at Ex/Em=780 nm/820 nm (mice)	time to surface saturation ([1]; both 24° C. and 4° C.)	total cargo immobilized on nanoP^3 within first 30 seconds ([1]; incubation at 4° C.) [%]	total cargo immobilized on nanoP^3 within first 30 seconds ([1]; incubation at 24° C.) [%]	HRP activity (absorbance at 405 nm with ABTS) [2]
CC1(C)C(/C=C/C=C/C=C/C=C2\N(CCCCS(=O)(=O)[O-])c3ccc4ccccc4c3C2(C)C)=[N+](CCCCS(=O)(=O)[O-])c2ccc3ccccc3c21.[Na+] [ICG, sodium 4-[2-[(1E,3E,5E,7Z)-7-[1,1-dimethyl-3-(4-sulfonatobutyl)benzo[e]indol-2ylidene]hepta-1,3,5-trienyl]-1,1-dimethylbenzo[e]indol-3-ium-3-yl]butane-1-sulfonate]	absent	less than 5 minutes	60	90	–
Horseradish Peroxidase [HRP alone]	–	–	–	–	below background levels of activity
